{
  "source": "patent US20190105367A1",
  "about": "“ANTIMICROBIAL 4-OXOQUINOLIZINES” (Emergent Product Development Gaithersburg Inc., priority 2011, published 2019)",
  "key": {"A. baumannii A14 [1]": {"test_system": "A. baumannii A14", "experiment": "MIC without and with sub-inhibitory polymyxin B (Example 4)", "format": "cell-based, Acinetobacter baumannii", "conditions": "Acinetobacter baumannii, A14, A. baumannii A14; without PB; value in parentheses; 2nd experiment; read-out: MIC read with alamar blue"}, "A. baumannii A387": {"test_system": "A. baumannii A387", "experiment": "MIC without and with sub-inhibitory polymyxin B (Example 4)", "format": "cell-based, Acinetobacter baumannii", "conditions": "Acinetobacter baumannii, A387, read-out: MIC +0.06 μg/ml PB, A. baumannii A387; +0.06 μg/ml polymyxin B; 1st experiment"}, "A. baumannii A472": {"test_system": "A. baumannii A472", "experiment": "Preliminary MBC without and with sub-inhibitory polymyxin B (Example 4)", "format": "cell-based, Acinetobacter baumannii", "conditions": "Acinetobacter baumannii, preliminary MBC"}, "A. baumannii A14 [2]": {"test_system": "A. baumannii A14", "experiment": "Preliminary MBC without and with sub-inhibitory polymyxin B (Example 4)", "format": "cell-based, Acinetobacter baumannii", "conditions": "A. baumannii A14; +0.06 μg/ml polymyxin B; preliminary MBC; 1st experiment"}, "A. baumannii A390 [3]": {"test_system": "A. baumannii A390", "experiment": "MIC without and with sub-inhibitory polymyxin B (Example 4)", "format": "cell-based, Acinetobacter baumannii", "conditions": "Acinetobacter baumannii, A390, A. baumannii A390; +0.06 μg/ml PB; 2nd experiment; read-out: MIC"}, "A. baumannii A14 [4]": {"test_system": "A. baumannii A14", "experiment": "MIC without and with sub-inhibitory polymyxin B (Example 4)", "format": "cell-based, Acinetobacter baumannii", "conditions": "+0.06 μg/ml polymyxin B, 1st experiment"}, "A. baumannii ATCC 19606": {"test_system": "A. baumannii ATCC 19606", "experiment": "Preliminary MBC without and with sub-inhibitory polymyxin B (Example 4)", "format": "cell-based, Acinetobacter baumannii", "conditions": "Acinetobacter baumannii"}, "A. baumannii NCTC 13301 [5]": {"test_system": "A. baumannii NCTC 13301", "experiment": "MIC without and with sub-inhibitory polymyxin B (Example 4)", "format": "cell-based, Acinetobacter baumannii", "conditions": "Acinetobacter baumannii, NCTC13301, A. baumannii NCTC 13301; +[…] PB; 2nd experiment; read-out: MIC"}, "A. baumannii A390 [6]": {"test_system": "A. baumannii A390", "experiment": "Preliminary MBC without and with sub-inhibitory polymyxin B (Example 4)", "format": "cell-based, Acinetobacter baumannii", "conditions": "Acinetobacter baumannii, A390, A. baumannii A390, +0.06 μg/ml PB, 2nd experiment, read-out: MBC", "protocol": "(§1) The plates were incubated for 18-20 hours at 37° C. The MBC was read as the lowest concentration at which colony growth was ca. 90% less than the positive control (i.e. usually where single colonies or no colonies were observed)."}, "A. baumannii A473 [7]": {"test_system": "A. baumannii A473", "experiment": "Preliminary MBC without and with sub-inhibitory polymyxin B (Example 4)", "format": "cell-based, Acinetobacter baumannii", "conditions": "Acinetobacter baumannii, A473, A. baumannii A473, +0.06 μg/ml PB, 2nd experiment, read-out: MBC", "protocol": "as §1"}, "A. baumannii NCTC 13301 [8]": {"test_system": "A. baumannii NCTC 13301", "experiment": "Preliminary MBC without and with sub-inhibitory polymyxin B (Example 4)", "format": "cell-based, Acinetobacter baumannii", "conditions": "Acinetobacter baumannii", "protocol": "as §1"}, "A. baumannii A14 [9]": {"test_system": "A. baumannii A14", "experiment": "Preliminary MBC without and with sub-inhibitory polymyxin B (Example 4)", "format": "cell-based, Acinetobacter baumannii", "conditions": "A. baumannii A14, +0.06 μg/ml PB, 2nd experiment", "protocol": "as §1"}, "[10]": {"test_system": "Acinetobacter sp. (H064200250)", "experiment": "MIC without and with sub-inhibitory polymyxin B (Example 4)", "format": "cell-based", "conditions": "Acinetobacter"}, "A. baumannii A473 [11]": {"test_system": "A. baumannii A473", "experiment": "MIC without and with sub-inhibitory polymyxin B (Example 4)", "format": "cell-based, Acinetobacter baumannii", "conditions": "Acinetobacter baumannii, A473, A. baumannii A473; +0.06 μg/ml PB; 2nd experiment; read-out: MIC"}, "A. baumannii NCTC 13301 [12]": {"test_system": "A. baumannii NCTC 13301", "experiment": "MIC without and with sub-inhibitory polymyxin B (Example 4)", "format": "cell-based, Acinetobacter baumannii", "conditions": "Acinetobacter baumannii, NCTC13301, read-out: MIC +[…] PB"}, "A. baumannii A489 [13]": {"test_system": "A. baumannii A489", "experiment": "Preliminary MBC without and with sub-inhibitory polymyxin B (Example 4)", "format": "cell-based, Acinetobacter baumannii", "conditions": "Acinetobacter baumannii, preliminary MBC"}, "A. baumannii J2 [14]": {"test_system": "A. baumannii J2", "experiment": "Preliminary MBC without and with sub-inhibitory polymyxin B (Example 4)", "format": "cell-based, Acinetobacter baumannii", "conditions": "Acinetobacter baumannii, preliminary MBC"}, "[15]": {"test_system": "Acinetobacter sp. (H064200250)", "experiment": "Preliminary MBC without and with sub-inhibitory polymyxin B (Example 4)", "format": "cell-based", "conditions": "Acinetobacter, preliminary MBC", "protocol": "as §1"}, "[16]": {"test_system": "strains of A. baumannii and one strain of Acinetobacter sp.", "experiment": "MIC with sub-inhibitory concentrations (0.25x MIC) of polymyxin B, panel of Acinetobacter strains (Example 4)", "format": "cell-based"}, "A. baumannii A329": {"test_system": "A. baumannii A329", "experiment": "Preliminary MBC without and with sub-inhibitory polymyxin B (Example 4)", "format": "cell-based, Acinetobacter baumannii", "conditions": "Acinetobacter baumannii, A329, A. baumannii A329, +0.06 μg/ml PB, 2nd experiment, read-out: MBC"}, "A. baumannii A489 [17]": {"test_system": "A. baumannii A489", "experiment": "MIC without and with sub-inhibitory polymyxin B (Example 4)", "format": "cell-based, Acinetobacter baumannii", "conditions": "Acinetobacter baumannii"}, "A. baumannii J2 [18]": {"test_system": "A. baumannii J2", "experiment": "MIC without and with sub-inhibitory polymyxin B (Example 4)", "format": "cell-based, Acinetobacter baumannii", "conditions": "Acinetobacter baumannii, J2, A. baumannii J2; +[…] PB; 2nd experiment; read-out: MIC"}},
  "note": "Where two headings read alike, the source gives them in different places.",
  "data": [
    {"smiles": "C[C@@H](O)[C@H]1C(=O)N2C(C(=O)O)=C(S[C@@H]3CN[C@H](C(=O)N(C)C)C3)[C@H](C)[C@H]12", "note": "[Meropenem]", "values": [
      {"measurement": "MIC", "setting": "A. baumannii A14 [1]", "value": 2, "unit": "µg/mL"},
      {"measurement": "MIC", "setting": "A. baumannii A387", "value": 1, "unit": "µg/mL"},
      {"measurement": "MBC", "setting": "A. baumannii A472; A472, A. baumannii A472, +[…] PB, 2nd experiment, read-out: MBC", "value": "≤ 0.125", "unit": "µg/mL"},
      {"measurement": "MBC", "setting": "A. baumannii A472; A472, read-out: MBC +[…] PB, A. baumannii A472, +[…] polymyxin B, 1st experiment", "value": "≤ 0.125", "unit": "µg/mL"},
      {"measurement": "MBC +0.06 μg/ml PB", "setting": "A. baumannii A14 [2]", "value": 0.5, "unit": "µg/mL"},
      {"measurement": "MIC", "setting": "A. baumannii A390 [3]", "value": 2, "unit": "µg/mL"},
      {"measurement": "MIC +0.06 μg/ml PB", "setting": "A. baumannii A14 [4]", "value": 0.5, "unit": "µg/mL"},
      {"measurement": "MBC", "setting": "A. baumannii ATCC 19606; ATCC19606, A. baumannii ATCC 19606, +0.06 μg/ml PB, 2nd experiment, read-out: MBC", "value": 2, "unit": "µg/mL"},
      {"measurement": "MBC", "setting": "A. baumannii ATCC 19606; ATCC19606, read-out: MBC +0.06 μg/ml PB, A. baumannii ATCC 19606, +0.06 μg/ml polymyxin B, 1st experiment", "value": 2, "unit": "µg/mL"},
      {"measurement": "MIC", "setting": "A. baumannii NCTC 13301 [5]", "value": 0.25, "unit": "µg/mL"},
      {"measurement": "MBC", "setting": "A. baumannii A390 [6]", "value": 2, "unit": "µg/mL"},
      {"measurement": "MBC", "setting": "A. baumannii A473 [7]", "value": 2, "unit": "µg/mL"},
      {"measurement": "MBC", "setting": "A. baumannii NCTC 13301 [8]; NCTC13301, A. baumannii NCTC 13301, +[…] PB, preliminary MBC, 2nd experiment, read-out: MBC", "value": "≤ 0.125", "unit": "µg/mL"},
      {"measurement": "MBC", "setting": "A. baumannii NCTC 13301 [8]; NCTC13301, read-out: MBC +[…] PB", "value": 1, "unit": "µg/mL"},
      {"measurement": "MBC", "setting": "A. baumannii A14 [9]", "value": 1, "unit": "µg/mL"},
      {"measurement": "MIC", "setting": "[10]; Acinetobacter spp. H064200250 (OXA51), +[…] PB, 2nd experiment, read-out: MIC", "value": 0.25, "unit": "µg/mL"},
      {"measurement": "MIC", "setting": "[10]; read-out: MIC +[…] PB, Acinetobacter spp. H064200250, +[…] polymyxin B, 1st experiment", "value": 1, "unit": "µg/mL"},
      {"measurement": "MIC", "setting": "A. baumannii A473 [11]", "value": 2, "unit": "µg/mL"},
      {"measurement": "MIC", "setting": "A. baumannii NCTC 13301 [12]", "value": 1, "unit": "µg/mL"},
      {"measurement": "MBC", "setting": "A. baumannii A489 [13]; A489, A. baumannii A489, +[…] PB, 2nd experiment, read-out: MBC", "value": "≤ 0.125", "unit": "µg/mL"},
      {"measurement": "MBC", "setting": "A. baumannii A489 [13]; A489, read-out: MBC +[…] PB, A. baumannii A489, +[…] polymyxin B, 1st experiment", "value": 0.5, "unit": "µg/mL"},
      {"measurement": "MBC", "setting": "A. baumannii J2 [14]; J2, A. baumannii J2, +[…] PB, 2nd experiment, read-out: MBC", "value": "≤ 0.125", "unit": "µg/mL"},
      {"measurement": "MBC", "setting": "A. baumannii J2 [14]; J2, read-out: MBC +[…] PB, A. baumannii J2, +[…] polymyxin B, 1st experiment", "value": 1, "unit": "µg/mL"},
      {"measurement": "MBC", "setting": "[15]; Acinetobacter spp. H064200250 (OXA51), +[…] PB, 2nd experiment, read-out: MBC", "value": 0.25, "unit": "µg/mL"},
      {"measurement": "MBC", "setting": "[15]; read-out: MBC +[…] PB, Acinetobacter spp. H064200250, +[…] polymyxin B, 1st experiment", "value": 1, "unit": "µg/mL"},
      {"measurement": "MIC range with PB (0.25x MIC) Oct. 1, 2008 n = 8", "setting": "[16]; 1st experiment, […] polymyxin B, ATCC 19606, A329, A390 and A473 not taken", "value": "<0.125 to 4", "unit": "µg/mL"},
      {"measurement": "MIC range with PB (0.25x MIC) Oct. 14, 2008 n = 11", "setting": "[16]; 2nd experiment, 0.06 μg/ml polymyxin B, all strains except the ATCC strain", "value": "≤0.125 to 32", "unit": "µg/mL"},
      {"measurement": "MBC", "setting": "A. baumannii A329", "value": 32, "unit": "µg/mL"},
      {"measurement": "MIC", "setting": "A. baumannii A489 [17]; A489, A. baumannii A489, +[…] PB, 2nd experiment, read-out: MIC", "value": "≤ 0.125", "unit": "µg/mL"},
      {"measurement": "MIC", "setting": "A. baumannii A489 [17]; A489, read-out: MIC +[…] PB, A. baumannii A489, +[…] polymyxin B, 1st experiment", "value": 0.5, "unit": "µg/mL"},
      {"measurement": "MIC", "setting": "A. baumannii J2 [18]", "value": "≤ 0.125", "unit": "µg/mL"}
    ]}
  ]
}
